SMILES strings stand for the structures. Where two headings read alike, the source gives them in different places.

The source of these data is patent US20140288044A1, “COMPOSITIONS AND THERAPEUTIC USES OF IKK-RELATED KINASE EPSILON AND TANKBINDING KINASE 1 INHIBITORS” (Alzheimer's Institute of America, Inc., priority 2011, published 2014).

The assay addresses T1, IKKε (Homo sapiens, UniProt Q14164).
T1 construct: His-tag (in-house Sf9 preparation) or GST-tag (purchased Invitrogen preparation); these are alternatives, not both on one protein; host or cells: Sf9 cells
T1 sequence (Q14164 1-716): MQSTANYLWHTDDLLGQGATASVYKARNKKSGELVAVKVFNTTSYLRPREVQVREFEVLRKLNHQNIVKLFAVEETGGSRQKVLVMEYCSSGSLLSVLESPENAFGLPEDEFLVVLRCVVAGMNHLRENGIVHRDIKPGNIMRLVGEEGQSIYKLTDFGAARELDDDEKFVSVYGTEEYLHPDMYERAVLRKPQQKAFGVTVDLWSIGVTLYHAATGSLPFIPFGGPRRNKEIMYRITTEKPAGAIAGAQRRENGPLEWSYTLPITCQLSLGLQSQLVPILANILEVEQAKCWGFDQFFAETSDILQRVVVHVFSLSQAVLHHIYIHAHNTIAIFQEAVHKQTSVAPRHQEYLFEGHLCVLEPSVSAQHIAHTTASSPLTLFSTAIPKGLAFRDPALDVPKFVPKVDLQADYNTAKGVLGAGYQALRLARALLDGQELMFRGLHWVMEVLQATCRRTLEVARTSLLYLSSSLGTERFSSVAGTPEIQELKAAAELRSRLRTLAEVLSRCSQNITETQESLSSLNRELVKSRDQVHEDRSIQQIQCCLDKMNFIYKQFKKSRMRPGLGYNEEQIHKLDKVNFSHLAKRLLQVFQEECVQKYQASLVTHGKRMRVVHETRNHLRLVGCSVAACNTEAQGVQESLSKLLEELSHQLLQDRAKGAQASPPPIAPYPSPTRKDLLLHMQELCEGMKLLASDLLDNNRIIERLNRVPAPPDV
Nature of the assay: In-vitro IKKε kinase assay (radiolabelled ATP, filterplate). It is filed as biochemical. How it is done:
IKKε enzyme was produced as a His-tag fusion in Sf9 cells or purchased as a GST-tag fusion (Invitrogen, Carlsbad, Calif.). TBK1 enzyme was produced as a His-tag fusion in Sf9 cells. Kinase reactions were carried out in reaction buffer using myelin basic protein (Millipore, Ballerica, Mass.), casein or dephosphorylated casein (Sigma, St. Louis, Mo.) as substrate at an ATP concentration equal to twice the Km,ATP value for each enzyme, corresponding to 32 μM ATP for IKKε and 60 μM ATP for TBK1. Radiolabelled [γ^33]ATP (PerkinElmer, Waltham, Mass.) in the amount of […] (IKKe, “normal”) or 0.7 μCi (IKKε, “sensitized”) or 1.25 μCi (TBK1) was added to each assay. Final enzyme concentrations were 0.1 or 0.015 μg/ml (IKKε) and 0.1 or 0.02 μg/ml (TBK1) for the “normal” and “sensitized” assay, respectively, and “sensitized” assays were conducted using only dephosphorylated casein as substrate. Test compounds (or DMSO solvent as a control) were added prior to initiation of the reactions. Reactions were terminated after 30-45 minutes by adding 3% phosphoric acid. Terminated reactions were transferred to P-81 cellulose phosphate filterplates (Whatman, Inc., Piscataway, N.J.) and washed with 1% phosphoric acid on a vacuum apparatus. After air drying, scintillant (PerkinElmer, Waltham, Mass.) was added and the plates were read on a PerkinElmer TopCount NXT instrument. Counts were normalized to DMSO controls after background subtraction.

Where [1] appears, read: "sensitized" assay, read-out: IC50, inhibition of the kinase activity of IKKε.
The mark [2] stands for this setting: in-vitro IKKε kinase inhibition assays, given as 0.005 μM (5 nM), read-out: IKKε kinase inhibitory activity (IC50 value).

As for `CCN(CC)c1ccc(Nc2nccc(-c3ccc(OC4CCOCC4)c(C#N)c3)n2)cn1` [Example Compound 9, 5-(2-{[6-(Diethylamino)pyridin-3-yl]amino}pyrimidin-4-yl)-2-(tetrahydro-2H-pyran-4-yloxy)benzonitrile], the IC50 runs as follows: under setting [1], less than 5 nM; under setting [2], less than 5 nM.

Regarding `CN(C)c1ccc(Nc2nccc(-c3ccc(OC4CCOCC4)c(C#N)c3)n2)cn1` [Example Compound 10, 5-(2-{[6-(Dimethylamino)pyridin-3-yl]amino}pyrimidin-4-yl)-2-(tetrahydro-2H-pyran-4-yloxy)benzonitrile], the half-inhibitory concentration (IC50) is less than 5 nM under setting [1] and less than 5 nM under setting [2].

Take `N#Cc1cc(-c2ccnc(Nc3cncc(C(=O)NCCO)c3)n2)ccc1OC1CCOCC1` [Example Compound 13, 5-({4-[3-Cyano-4-(tetrahydro-2H-pyran-4-yloxy)phenyl]pyrimidin-2-yl}amino)-N-(2-hydroxyethyl)pyridine-3-carboxamide]: the IC50 under setting [2] is less than 5 nM.

In the case of `N#Cc1cc(-c2ccnc(Nc3cncc(CN4CCOCC4)c3)n2)ccc1OC1CCOCC1` [Example Compound 21, 5-(2-{[5-(Morpholin-4-ylmethyl)pyridin-3-yl]amino}pyrimidin-4-yl)-2-(tetrahydro-2H-pyran-4-yloxy)benzonitrile], the IC50 under setting [2] is less than 5 nM.

Consider `COCCNCc1cncc(Nc2nccc(-c3ccc(OC4CCOCC4)c(C#N)c3)n2)c1` [Example Compound 22, 5-{2-[(5-{[(2-Methoxyethyl)amino]methyl}pyridin-3-yl)amino]pyrimidin-4-yl}-2-(tetrahydro-2H-pyran-4-yloxy)benzonitrile], for which the IC50 under setting [2] was less than 5 nM.

Take `COc1cncc(Nc2nccc(-c3ccc(OC4CCOCC4)c(C#N)c3)n2)c1` [Example Compound 27, 5-{2-[(5-Methoxypyridin-3-yl)amino]pyrimidin-4-yl}-2-(tetrahydro-2H-pyran-4-yloxy)benzonitrile]: the IC50 under setting [1] is less than 5 nM and the IC50 under setting [2] is less than 5 nM.

Consider `N#Cc1cc(-c2ccnc(Nc3ccc(C(=O)N4CCC4)nc3)n2)ccc1OC1CCOCC1` [Example Compound 30, 5-(2-{[6-(Azetidin-1-ylcarbonyl)pyridin-3-yl]amino}pyrimidin-4-yl)-2-(tetrahydro-2H-pyran-4-yloxy)benzonitrile], for which the IC50 is less than 5 nM under setting [1] and less than 5 nM under setting [2].

`COC(=O)c1ccc(Nc2nccc(-c3ccc(OC4CCOCC4)c(C#N)c3)n2)cn1` [Example Compound 33, Methyl 5-({4-[3-cyano-4-(tetrahydro-2H-pyran-4-yloxy)phenyl]pyrimidin-2-yl}amino)pyridine-2-carboxylate]: the IC50 under setting [1] was less than 5 nM and the IC50 under setting [2] is less than 5 nM.

Take `COC(=O)c1cc(Nc2nccc(-c3ccc(OC4CCOCC4)c(C#N)c3)n2)ccn1` [Example Compound 36, Methyl 4-({4-[3-cyano-4-(tetrahydro-2H-pyran-4-yloxy)phenyl]pyrimidin-2-yl}amino)pyridine-2-carboxylate]: the IC50 under setting [2] is less than 5 nM.

For the compound `COCCNc1cc(Nc2nccc(-c3ccc(OC4CCOCC4)c(C#N)c3)n2)ccn1` [Example Compound 38, 5-[2-({2-[(2-Methoxyethyl)amino]pyridin-4-yl}amino)pyrimidin-4-yl]-2-(tetrahydro-2H-pyran-4-yloxy)benzonitrile], the IC50 under setting [2] is less than 5 nM.

Regarding `COC1CCN(c2cc(Nc3nccc(-c4ccc(OC5CCOCC5)c(C#N)c4)n3)ccn2)C1` (stereo not shown) [Example Compound 39, 5-(2-{[2-(3-Methoxypyrrolidin-1-yl)pyridin-4-yl]amino}pyrimidin-4-yl)-2-(tetrahydro-2H-pyran-4-yloxy)benzonitrile], the IC50 under setting [1] is less than 5 nM and the IC50 under setting [2] was less than 5 nM.

Consider `N#Cc1cc(-c2ccnc(Nc3ccnc(N4CCC[C@H]4CO)c3)n2)ccc1OC1CCOCC1` [Example Compound 40, 5-[2-({2-[(2S)-2-(Hydroxymethyl)pyrrolidin-1-yl]pyridin-4-yl}amino)pyrimidin-4-yl]-2-(tetrahydro-2H-pyran-4-yloxy)benzonitrile], for which the concentration for half-maximal inhibition (IC50) is less than 5 nM under setting [1] and less than 5 nM under setting [2].
